Tested on: CT26 colorectal carcinoma murine model
Settings: mouse, in vivo
Protocol: Efficacy was tested in murine model (BSPN02). CT26 colorectal cell lines in a murine model were chosen to conduct toxicity and safety studies in-vivo. The safety profile of Biomaterial-5-FU was compared with other control groups, and five aspects were evaluated as follows: (i) change in the body weight over time, (ii) organ weight and the ratio of organ to body weight, (iii) Hematoxylin-Eosin (H & E) staining for histological changes, (iv) a hepatic function panel, and (v) blood chemistry to assess impact on bone marrow. For H & E staining, five major organs (liver, heart, spleen, lungs, and kidneys) were collected from the mice at each time point. […] This toxic effect was not observed in mice treated with Biomaterial-5-FU. […] This toxic effect was not observed in mice treated with Biomaterial-5-FU.

O=c1[nH]cc(F)c(=O)[nH]1 [IV 5-FU, 5-fluoro-1H-pyrimidine-2,4-dione]
toxic effect: absolute numbers of white blood cells: reduction in the absolute numbers of white blood cells | toxic effect: number of monocytes and other leukocytes (bone marrow suppression): reduction in the number of monocytes and other leukocytes

Source: patent publication US20250177290A1, “DRUG-ELUTING SURGICAL ARTICLES AND METHODS OF USE THEREOF” (BIOSAPIEN INC., priority 2022, published 2025)
